The values that follow come from patent US9428512B2, “Compounds” (GlaxoSmithKline LLC, priority 2012, dated 2016).

Where only a bound is given, the exact number is not on record here.

Experiment [1] deals with IFN-α induction in human whole blood. Description: Induction of Interferon-α using fresh human whole blood (WB). In kind it is cell-based. Conditions: three donors, overnight incubation, cytokine release as % of 2 μM resiquimod control, read-out: mean pEC50 for IFN-α (converted). Here is the method:
(§1) Assay for the Induction of Interferon-α and TNF-α Using Fresh Human Whole Blood (WB)
(§2) Compounds were prepared at 100× required concentration in DMSO in flat-bottom microtitre plates at a volume of 1.5 μL. Columns 1-10 contained a 1 in 4 serial dilution of the test compound. Included on each plate was a serial dilution of the TLR7/8 agonist resiquimod as a standard and Column 11 contained 1.5 μl of 200 μM resiquimod (giving a 2 μM final concentration, used to define the approximate maximal response to resiquimod). Each compound was assayed in duplicate for each donor.
(§3) Blood samples from three human donors were collected into sodium heparin (10 U/ml). 150 μl of whole Blood was dispensed into Col 1 to 11 of assay plates containing 1.5 μl of test compound or standard in DMSO. Plates were placed in an incubator overnight (37° C., 95% air, 5% CO2). Following the overnight incubation, plates were removed from the incubator & mixed on an orbital shaker for approximately 1 minute. 100 μl of 0.9% saline was added to each well and the plates mixed again on an orbital shaker. Plates were then centrifuged (2500 rpm, 10 mins), after which a sample of plasma was removed using a Biomek FX and assayed for both IFN-α and TNF-α using the MSD (Mesoscale Discovery) electrochemiluminescence assay platform. The IFN-α assay was carried out similarly to that described above. The TNF-α assay was carried out as per kit instructions (Cat No K111BHB).
(§4) Cytokine released was expressed as a percentage of the 2 μM resiquimod control (column 11). This percentage was plotted against compound concentration and the pEC50 for the response determined by non-linear least squares curve fitting. For the IFN-α responses, generally a 4 parameter logistic model was selected. For the TNF-α responses where a clear maximum response was obtained (i.e. a well defined plateau in the response was observed) then a 4 parameter model was generally used. If the upper asymptote of the curve wasn't well defined then the curve fitting was generally constrained to a maximal response of 100% (i.e. to the response to 2 μM resiquimod) or to the response of the highest concentration tested if this was greater than the resiquimod response. Some curves were bell shaped for one or both cytokines and the cytokine data on the down slope of the bell shaped response (i.e. concentrations above those giving the maximal response) were generally excluded from the fit, usually with the exception of the concentration immediately above the peak response. Curve fitting thus concentrated on the up slope of the dose response curve.

The test system of experiment [2] is TNF-α induction in human whole blood. The experiment is described as follows: Induction of TNF-α using fresh human whole blood (WB). In kind it is cell-based. The following applies: three donors, overnight incubation, cytokine release as % of 2 μM resiquimod control, read-out: mean pEC50 for TNF-α (converted). Here is the method:
as §1, §2, §3, §4

Turning to `CCCCc1nc(N)c2[nH]c(C)c(CCCCCN3CCN(CC)CC3)c2n1` [Example 4, 2-Butyl-7-(5-(4-ethylpiperazin-1-yl)pentyl)-6-methyl-5H-pyrrolo[3,2-d]pyrimidin-4-amine], the EC50 was ≤ 1580 nM in experiment [1] and ≥ 5.01 µM in experiment [2].
On the same counts, the results for `CCCCc1nc(N)c2[nH]cc(CCCN3CCNCC3)c2n1` [Example 5, 2-Butyl-7-(3-(piperazin-1-yl)propyl)-5H-pyrrolo[3,2-d]pyrimidin-4-amine] are ≤ 1580 nM and ≥ 5.01 µM.
For `CCCCc1nc(N)c2[nH]cc(CCCN3CCN(CC)CC3)c2n1` [Example 6, 2-Butyl-7-(3-(4-ethylpiperazin-1-yl)propyl)-5H-pyrrolo[3,2-d]pyrimidin-4-amine], in that order: ≤ 1580 nM and ≥ 5.01 µM.
As to `CCCCc1nc(N)c2[nH]cc(CCCCCN3CCNCC3)c2n1` [Example 1, 2-Butyl-7-(5-(piperazin-1-yl)pentyl)-5H-pyrrolo[3,2-d]pyrimidin-4-amine], the values for the EC50 in experiment [1] and in experiment [2] were ≤ 1580 nM and ≥ 5.01 µM, respectively.
For `CCCCc1nc(N)c2[nH]cc(CCCCCN3CCN(C(C)C)CC3)c2n1` [Example 2, 2-Butyl-7-(5-(4-isopropylpiperazin-1-yl)pentyl)-5H-pyrrolo[3,2-d]pyrimidin-4-amine], in that order: ≤ 1580 nM and ≥ 5.01 µM.
In the case of `CCCCc1nc(N)c2[nH]c(C)c(CCCCCN3CCN(C(C)C)CC3)c2n1` [Example 3, 2-Butyl-7-(5-(4-isopropylpiperazin-1-yl)pentyl)-6-methyl-5H-pyrrolo[3,2-d]pyrimidin-4-amine], the EC50 is ≤ 1580 nM in experiment [1] and ≥ 5.01 µM in experiment [2].
On the same counts, the results for `CCCCc1nc(N)c2[nH]cc(CCCCN3CCN(C(C)C)CC3)c2n1` [Example 7] are ≤ 1580 nM and ≥ 5.01 µM.
